Assay results reported in patent publication US20030203915A1, “Nitric oxide donors, compositions and methods of use related applications” (priority 2002, published 2003).
Structures can show the parent of a compound that is named as a salt. Where two headings read alike, the source gives them in different places.

Experiments:
[1] = tested on: human coronary artery smooth muscle cells (CASMC); assay: Vascular Smooth Muscle Cell (SMC) Antiproliferation Assay; assay type: cell-based
Description: The cells used in this assay were-human coronary artery smooth-muscle cells (CASMC) supplied by Clonetics Corp. (San Diego, Calif.).
Stock solutions of the test compounds were prepared just prior to addition to the cells by dissolving in ethanol at a concentration of 1000 times the highest concentration to be assayed. This stock solution was diluted, as required, with ethanol to lower concentrations. […] Control cultures received 2 μL of ethanol per well (n=4). On the following morning, the cultures were examined microscopically and their condition recorded. On the third day after test compound addition (˜68 hr), the cultures were examined microscopically again and the viable cells counted with an hemacytometer following trypsinization with 0.25% trypsin-1 mM EDTA. Trypan Blue dye exclusion was used to discriminate between viable and dead cells.

[2] = CASMC, viable cell count (Trypan Blue) ~68 hr after compound addition, non-nitrosylated (sulfhydryl) compound, read-out: IC 50 μM, Non-nitrosylated Compound (inhibition of proliferation of vascular smooth muscle cells)
[3] = Homo sapiens, CASMC, viable cell count (Trypan Blue) ~68 hr after compound addition, nitrosylated (nitrosothiol) compound, read-out: IC 50 μM, Nitrosylated Compound (inhibition of proliferation of vascular smooth muscle cells)
[4] = Homo sapiens, CASMC, viable cell count (Trypan Blue) ~68 hr after compound addition, non-nitrosylated (sulfhydryl) compound, read-out: IC 50 μM, Non-nitrosylated Compound (inhibition of proliferation of vascular smooth muscle cells)
[5] = CASMC, viable cell count (Trypan Blue) ~68 hr after compound addition, non-nitrosylated (sulfhydryl) compound
[6] = CASMC, viable cell count (Trypan Blue) ~68 hr after compound addition, nitrosylated (nitrosothiol) compound, read-out: IC 50 μM, Nitrosylated Compound (inhibition of proliferation of vascular smooth muscle cells)

CC1(C)c2ccccc2C(C)(C)C1(CC#N)SN=O [Example 4, 2-(1,1,3,3-Tetramethyl-2-(nitrosothio)indan-2-yl)ethanenitrile]
melting point: 67 to 69 °C

CC(C)(CNC(=O)CSCC(=O)O)SN=O [Example 5, 2-((N-(2-Methyl-2-(nitrosothio)propyl)carbamoyl)methylthio)acetic acid]
melting point: 47 to 51 °C

CC12CCC(C1)C(C)(C)C2(CCO)SN=O (stereo not shown) [Example 7, 2-(1,3,3-Trimethyl-2-(nitrosothio)bicyclo(2.2.1)hept-2-yl)ethan-1-ol]
melting point: 81 to 85 °C

CC(C)(S)CN1C(=O)C2C3C=CC(C3)C2C1=O (stereo not shown) [Example 11a, 4-Aza-4-(2-methyl-2-sulfanylpropy)tricyclo(5.2.1.0<2,6>)dec-8-ene-3,5-dione]
IC50 [1, 2]: 80 µM

CC(C)(CN1C(=O)C2C3C=CC(C3)C2C1=O)SN=O (stereo not shown) [Example 11b, 4-Aza-4-(2-methyl-2-(nitrosothio)propyl)tricyclo(5.2.1.0<2,6>)dec-8-ene-3,5-dione]
IC50 [1, 3]: 16 µM

CC(C)(C)OC(=O)CC1(S)C2CC3CC(C2)CC1C3 (stereo not shown) [Example 12a, tert-Butyl-2-(2-sulfanyladamant-2-yl)acetate]
IC50 [1, 4]: 25 µM

NC(=O)CC1(S)C2CC3CC(C2)CC1C3 (stereo not shown) [Example 12c, 2-(2-Sulfanyladamantan-2-yl)acetamide]
IC 50 μM, Non-nitrosylated Compound (inhibition of proliferation of vascular smooth muscle cells) [1, 5]: slight inhibition

NC(=O)CC1(SN=O)C2CC3CC(C2)CC1C3 (stereo not shown) [Example 12d, 2-(2-(Nitrosothio)adamantan-2-yl)acetamide]
IC50 [1, 3]: 12 µM

CC(C)(C)C(CC#N)(SN=O)C(C)(C)C [Example 15, 3-(tert-Butyl)-4,4-dimethyl-3-(nitrosothio)pentanenitrile]
melting point: 92 to 93 °C

CC(C)(S)CN [Example 18a, 2-Mercapto-2-methyl-1-propylamine]
IC 50 μM, Non-nitrosylated Compound (inhibition of proliferation of vascular smooth muscle cells) [1, 5]: slight inhibition

CSc1nccc(NCC(C)(C)S)n1 [Example 18b, 2-Methyl-1-((2-methylthiopyrimidin-4-yl)amino)propane-2-thiol]
IC50 [1, 3]: 26 µM

CSc1nccc(NCC(C)(C)SN=O)n1 [Example 18c, (2-Methyl-2-(nitrosothio)propyl)(2-methylthiopyrimidin-4-yl)amine]
melting point: 77 to 79 °C

CC(C)(S)CNC(=O)CCCC(=O)O [Example 19a, 4-(N-(2-Methyl-2-sulfanylpropyl)carbamoyl)butanoic acid]
IC50 [1, 4]: > 200 µM

CC(C)(CNC(=O)CCCC(=O)O)SN=O [Example 19b, 4-(N-(2-Methyl-2-(nitrosothio)propyl)carbamoyl)butanoic acid]
melting point: 104 to 107 °C
IC50 [1, 3]: 50 µM

CC(C)(S)CNC(=O)NCC(C)(C)S [Example 20c, N-(2-Methyl-2-sulfanylpropyl)((2-methyl-2-sulfanylpropyl)amino)carboxade]
IC 50 μM, Non-nitrosylated Compound (inhibition of proliferation of vascular smooth muscle cells) [1, 5]: slight inhibition

CC(C)(CNC(=O)NCC(C)(C)SN=O)SN=O [Example 20d, N-(2-Methyl-2-(nitrosothio)propyl)((2-methyl-2-(nitrosothio)propyl)amino)carboxamide]
IC50 [1, 3]: 28 µM

CC(C)(S)CN1C(=O)NC(=O)C1=O [Example 21b, 1-(2-Methyl-2-sulfanylpropyl)imidazolidine-2,4,5-trione]
IC 50 μM, Non-nitrosylated Compound (inhibition of proliferation of vascular smooth muscle cells) [1, 5]: no inhibition

CC(C)(CN1C(=O)NC(=O)C1=O)SN=O [Example 21c, 1-(2-Methyl-2-(nitrosothio)propyl)imidazolidine-2,4,5-trione]
melting point: 80 to 82 °C
IC50 [1, 3]: 12 µM

CC1(S)C2CC3CC(C2)CC1C3 (stereo not shown) [Example 25b, 2-Methyladamantane-2-thiol]
IC50 [1, 4]: 65 µM

CC1(SN=O)C2CC3CC(C2)CC1C3 (stereo not shown) [Example 25c, (2-Methyladamantan-2-yl)nitrosothio]
IC50 [1, 6]: 33 µM

O=C(OCc1ccccc1)N1CCC(S)(CO)CC1 [Example 26d, Phenylmethyl 4-(hydroxymethyl)-4-sulfanylpiperidinecarboxylate]
IC 50 μM, Non-nitrosylated Compound (inhibition of proliferation of vascular smooth muscle cells) [1, 5]: no inhibition

O=NSC1(CO)CCN(C(=O)OCc2ccccc2)CC1 [Example 26e, Phenylmethyl 4-(hydroxymethyl)-4-(nitrosothio)piperidinecarboxylate]
IC50 [1, 6]: 33 µM

CC(C)(S)CNC(=O)C(C)(C)CCC(=O)O [Example 27a]
IC50 [1, 2]: 78 µM

CC(C)(CNC(=O)C(C)(C)CCC(=O)O)SN=O [Example 27b, 4-Methyl-4-(N-(2-methyl-2-(nitrosothio)propyl)carbamoyl)pentanoic acid]
melting point: 93 to 96 °C
IC50 [1, 3]: 34 µM

CC(C)(C)OC(=O)CC1(SN=O)C2CC3CC(C2)CC1C3 (stereo not shown) [Example 29, tert-Butyl 2-(2-(nitrosothio)adamantan-2-yl)acetate]
melting point: 85 to 87 °C
IC50 [1, 3]: 11 µM

COc1ccc(C(=O)OCCC2(SN=O)C3CC4CC(C3)CC2C4)cc1 (stereo not shown) [Example 31, 2-(2-(Nitrosothio)adamantan-2-yl)ethyl 4-methoxybenzoate]
melting point: 100 to 101 °C

O=C(CC1(S)C2CC3CC(C2)CC1C3)NCCO (stereo not shown) [Example 34c, N-(2-Hydroxyethyl)-2-(2-sulfanyladamantan-2-yl)acetamide]
IC 50 μM, Non-nitrosylated Compound (inhibition of proliferation of vascular smooth muscle cells) [1, 5]: no inhibition

O=NSC1(CC(=O)NCCO)C2CC3CC(C2)CC1C3 (stereo not shown) [Example 34d, N-(2-Hydroxyethyl)-2-(2-(nitrosthio)adamantan-2-yl)acetamide]
IC50 [1, 6]: 23 µM

CC1(S)CN2CCC1CC2.Cl (stereo not shown) [Example 36b, 3-Methylquinudidine-3-thiol hydrochloride]
IC 50 μM, Non-nitrosylated Compound (inhibition of proliferation of vascular smooth muscle cells) [1, 5]: no inhibition

CC1(SN=O)CN2CCC1CC2 (stereo not shown) [Example 36c, (3-Methylquinudidin-3-yl)nitrosothio hydrochlroide]
IC50 [1, 6]: 22 µM

O=NSC1(CC(=O)OCC(CO[N+](=O)[O-])(CO[N+](=O)[O-])CO[N+](=O)[O-])C2CC3CC(C2)CC1C3 (stereo not shown) [Example 37, 2,2-Bis((nitrooxy)methyl)-3-(nitrooxy)propyl 2-(2-(nitrosothio)adamantan-2-yl)acetate]
IC50 ([1]; Homo sapiens, 68 h, read-out: IC 50 μM, Nitrosylated Compound (inhibition of proliferation of vascular smooth muscle cells)): 5 µM

CC(C)(CN)SN=O [Example 38a, 2-Methyl-2-(nitrosothio)propylamine hydrochloride]
IC50 [1, 3]: 40 to 60 µM

CC(C)(CNC(=O)C(C)(C)CO[N+](=O)[O-])SN=O [Example 38b, 2,2-Dimethyl-N-(2-methyl-2-(nitrosothio)propyl)-3-(nitrooxy)propanamide]
IC50 [1, 3]: 50 µM

C[N+](C)(CCNC(=O)CC1(S)C2CC3CC(C2)CC1C3)Cc1ccccc1.[Cl-] (stereo not shown) [Example 43b, N-(2-(Dimethylbenzylammonium)ethyl)-2-(2-sulfanyladamantan-2-yl)acetamide chloride]
IC 50 μM, Non-nitrosylated Compound (inhibition of proliferation of vascular smooth muscle cells) [1, 5]: no inhibition

C[N+](C)(CCNC(=O)CC1(SN=O)C2CC3CC(C2)CC1C3)Cc1ccccc1 (stereo not shown) [Example 43c, N-(2-(Dimethylbenzylammonium)ethyl)-2-(2-(nitrosothio)adamantan-2-yl)acetamide chloride]
IC50 [1, 6]: 27 µM

C[N+](C)(C)CCNC(=O)CC1(S)C2CC3CC(C2)CC1C3.[Cl-] (stereo not shown) [Example 44b, 2-(2—Sulfanyladamantan-2-yl)-N-(2(trimethylammonium)ethyl)acetamide chloride]
IC 50 μM, Non-nitrosylated Compound (inhibition of proliferation of vascular smooth muscle cells) [1, 5]: no inhibition

C[N+](C)(C)CCNC(=O)CC1(SN=O)C2CC3CC(C2)CC1C3 (stereo not shown) [Example 44c, 2-(2-(Nitrosothio)adamantan-2-yl)-N-(2-(trimethylammonium)ethyl)-acetamide chloride]
IC50 [1, 6]: 33.5 µM

SC1(C2OCCO2)CCCCC1 [Example 45a, 2(1-Mercaptocyclohex-1-yl)-1,3-dioxolane]
IC 50 μM, Non-nitrosylated Compound (inhibition of proliferation of vascular smooth muscle cells) [1, 5]: slight inhibition

O=NSC1(C2OCCO2)CCCCC1 [Example 45b, 2(1-Nitrosomercaptocyclohex-1-yl)-1,3-dioxolane]
melting point: 37 to 39 °C
IC50 [1, 3]: 42 µM

SC1(C2OCCCO2)CCCCC1 [Example 46a, 2-(1-Mercaptocyclohex-1-yl)-1,3-dioxane]
IC 50 μM, Non-nitrosylated Compound (inhibition of proliferation of vascular smooth muscle cells) [1, 5]: no inhibition

O=NSC1(C2OCCCO2)CCCCC1 [Example 46b, 2-(1-Nitrosomercaptocyclohex-1-yl)-1,3-dioxane]
melting point: 34 to 36 °C
IC50 [1, 3]: 47 µM

COP(=O)(CC(S)(C1CC1)C1CC1)OC [Example 47a, Dimethyl (2,2-dicyclopropyl-2-mercaptoethyl)phosphonate]
IC 50 μM, Non-nitrosylated Compound (inhibition of proliferation of vascular smooth muscle cells) [1, 5]: slight inhibition

COP(=O)(CC(SN=O)(C1CC1)C1CC1)OC [Example 47b, Dimethyl (2,2-dicyclopropyl-2-(nitrosothio)ethyl)phosphonate]
IC50 [1, 6]: 41 µM
